Here are results for 3 compounds from patent US11292789B1 (priority 2020, dated 2022).

For series [1], the target named is α-glucosidase (Saccharomyces cerevisiae, UniProt P53341). In kind it is biochemical. The following applies: concentrations 0.01 to 0.25 mg/ml, FIG. 7.
Method: Next, 20 μl of P-NPG (5 mM) was added as a substrate and further incubated at 37° C. for 20 minutes. This reaction was stopped by adding 50 μl of Na2CO3 (0.1 M). […] Each experiment was performed three times. An inhibition rate (%) was evaluated using the following equation (inhibition (%)=[1−(sample/control)]×100).
In series [2] the test system is 12-day-old cortical cell cultures. Briefly: Nerve cell protection against excitotoxin damage, MTT assay. In kind it is cell-based. The following applies: for Cell viability from excitotoxin-induced neuron toxicity: cortical cell cultures pre-treated 1 hour, then glutamate, AMPA, NMDA, kinate, MTT after one day. How it is done:
Nerve cell protection ability was evaluated using Quinazole and MDPX-V2021 prepared according to Example 1 and MK-801 prepared according to Comparative Example 3.
To evaluate the neuroprotective activity of Quinazole, MDPX-V2021 and MK-801 against damage due to excitotoxin, each of the samples was dissolved in ethanol (final concentration, 0.1%), and a 12-day-old cortical cell cultures were used. The cultures were respectively pre-treated with the samples for 1 hour and then exposed to 20 μM glutamate, 80 μM α-amino-3-hydroxy-5-methyl-4-isoxazolepropionic acid, 40 μM N-Methyl-D-aspartic acid and 200 μM kinate. Next, each of the cultures was additionally cultured in neurobasal medium for one day, and the survival rate of the nerve cells was measured by MTT assay.
MTT tetrazolium (1 mg/mL) was added to neurons grown in 96-well plate, and then cultured at 37° C. for 1 hour. The reaction medium was carefully sucked, and then DMSO was added thereto to dissolve the blue formazan product. The survival rate of the nerve cells was estimated by quantifying an available formazan at 540 nm using a multi-mode plate reader. The test was repeated 3 times, and the cell viability was calculated according to 100×(excitotoxin OD+sample treatment-excitotoxin treatment OD)/(control OD-excitotoxin treatment OD).

Sequence of α-glucosidase (P53341 whole entry, looked up): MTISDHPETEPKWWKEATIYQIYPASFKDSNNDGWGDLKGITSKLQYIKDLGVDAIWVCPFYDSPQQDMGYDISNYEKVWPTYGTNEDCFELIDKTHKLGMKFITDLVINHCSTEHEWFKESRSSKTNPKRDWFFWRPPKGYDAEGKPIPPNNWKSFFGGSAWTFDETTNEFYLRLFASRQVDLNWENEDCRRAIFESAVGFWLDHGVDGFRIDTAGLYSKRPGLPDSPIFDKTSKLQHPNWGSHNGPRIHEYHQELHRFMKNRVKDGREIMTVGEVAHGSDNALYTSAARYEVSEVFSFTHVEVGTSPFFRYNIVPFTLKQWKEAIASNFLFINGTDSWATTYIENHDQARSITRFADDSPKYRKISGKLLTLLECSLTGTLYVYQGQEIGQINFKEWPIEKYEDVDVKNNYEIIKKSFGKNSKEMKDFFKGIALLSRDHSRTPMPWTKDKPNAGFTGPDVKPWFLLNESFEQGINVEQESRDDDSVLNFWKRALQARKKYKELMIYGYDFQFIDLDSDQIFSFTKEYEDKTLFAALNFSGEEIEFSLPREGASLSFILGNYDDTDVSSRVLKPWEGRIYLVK

Regarding `COc1ccc(-n2cnc3ccc(OC)cc3c2=O)c(COC(C)(C)C)c1` [MDPX-V2021, 3-{2-[(tert-butoxy)methyl]-4-methoxyphenyl}-6-methoxy-3,4-dihydroquinazolin-4-one], the “inhibitory activity against α-glucosidase (in words)” value in series [1] is recorded as “has inhibitory activity against α-glucosidase”. For the same compound, the “Cell viability from excitotoxin-induced neuron toxicity” value in series [2] is recorded as 84.083 ± 3.482%. Besides, the “cell viability compared with Quinazole (in words)” value in series [2] (sample concentration range of 0.1 to 50 μM, FIG. 8) is given as “significantly higher”. Regarding `COc1ccc(-n2cnc3ccc(OC)cc3c2=O)c(CO)c1` [Quinazol A, Dictyoquinazol A, reference compound], in series [2], the “Cell viability from excitotoxin-induced neuron toxicity” value was found to be 68.910 ± 1.406%. On to `CC12NC(Cc3ccccc31)c1ccccc12` (centres unmarked) [MK-801, reference compound], for which, in series [2], the “Cell viability from excitotoxin-induced neuron toxicity” value is on record as 78.830 ± 0.567%.
